According to patent US20260102359A1, “COMBINATION TREATMENT OF DERMAL AND TRANSDERMAL FIBROTIC DISEASES, DISORDERS AND ASSOCIATED PAIN AND INFLAMMATION” (ERESINA, LLC, priority 2022, published 2026):
Structures can show the parent of a compound that is named as a salt.

System: hDMFa myofibroblast cells

Compound | Compound Myofibroblast Cytotoxicity Activity
NCCc1ccc(O)cc1 [Cmpd 981, Tyramine] | ++
C[C@H](CCC(=O)O)[C@H]1CC[C@H]2[C@@H]3[C@@H](O)C[C@@H]4C[C@H](O)CC[C@]4(C)[C@H]3CC[C@]12C [Cmpd 988, Ursodeoxycholic Acid] | +
O=c1ccn([C@@H]2O[C@H](COP(=O)([O-])OP(=O)([O-])OP(=O)([O-])O)[C@@H](O)[C@H]2O)c(=O)[nH]1.[Na+].[Na+].[Na+] [Cmpd 990, UTP, Trisodium Salt] | ++
CCCC(CCC)C(=O)O [Cmpd 993, Valproic acid] | +++
COc1cc2/c(=N/c3ccc(Br)cc3F)nc[nH]c2cc1OCC1CCN(C)CC1 [Cmpd 994, Vandetanib (ZD6474)] | ++++
COc1cc(C(=O)O)ccc1O [Cmpd 995, Vanillic acid] | ++
CCCc1nc(C)c2c(=O)[nH]c(-c3cc(S(=O)(=O)N4CCN(CC)CC4)ccc3OCC)nn12 [Cmpd 996, Vardenafil] | ++++
COc1ccc(C(CN(C)C)C2(O)CCCCC2)cc1 (stereo not shown) [Cmpd 998, Venlafaxine] | ++
C=Cc1c(C)c2cc3nc(cc4[nH]c(cc5nc(cc1[nH]2)C(C)=C5CCC(=O)O)c(CCC(=O)OC)c4C)[C@@]1(C)C3=CC=C(C(=O)OC)[C@H]1C(=O)OC [Cmpd 999, Verteporfin] | +++++
OCc1cc([C@@H](O)CNCCCCCCOCCOCc2c(Cl)cccc2Cl)ccc1O [Cmpd 1001, Vilanterol trifenatate] | +++
CC[C@]1(O)C[C@@H]2CN(CCc3c([nH]c4ccccc34)[C@@](C(=O)OC)(c3cc4c(cc3OC)N(C)[C@H]3[C@@](O)(C(=O)OC)[C@H](OC(C)=O)[C@]5(CC)C=CCN6CC[C@]43[C@@H]65)C2)C1 [Cmpd 1002, Vinblastine sulfate] | ++
CC[C@]1(O)C[C@H]2CN(CCc3c([nH]c4ccccc34)[C@@](C(=O)OC)(c3cc4c(cc3OC)N(C=O)[C@H]3[C@@](O)(C(=O)OC)[C@H](OC(C)=O)[C@]5(CC)C=CCN6CC[C@]43[C@@H]65)C2)C1 [Cmpd 1004, Vincristine sulfate] | +++
CCC1=C[C@@H]2CN(C1)Cc1c([nH]c3ccccc13)[C@@](C(=O)OC)(c1cc3c(cc1OC)N(C)[C@H]1[C@@](O)(C(=O)OC)[C@H](OC(C)=O)[C@]4(CC)C=CCN5CC[C@]31[C@@H]54)C2 [Cmpd 1005, Vinorelbine] | ++
CCOC(=O)C1=C[C@]2(CC)CCCN3CCc4c(n1c1ccccc41)[C@@H]32 [Cmpd 1006, Vinpocetine] | +++
C=C1CC[C@H](O)C/C1=C/C=C1\CCC[C@]2(C)[C@@H]([C@H](C)/C=C/[C@H](C)C(C)C)CC[C@@H]12 [Cmpd 1008, Vitamin D2 (Ergocalciferol)] | +++
C=C1CC[C@H](O)C/C1=C/C=C1\CCC[C@]2(C)[C@@H]([C@H](C)CCCC(C)C)CC[C@@H]12 [Cmpd 1009, Vitamin D3] | +++

Compound | Compound Myofibroblast Cytotoxicity Activity
CC1=C(C/C=C(\C)CCC[C@H](C)CCC[C@H](C)CCCC(C)C)C(=O)c2ccccc2C1=O [Cmpd 1010, Vitamin K1] | ++
CC(C)(C)C#Cc1cc(N(C(=O)[C@H]2CC[C@H](C)CC2)[C@H]2CC[C@H](O)CC2)c(C(=O)O)s1 [Cmpd 1014, VX-222 (VCH-222,Lomibuvir)] | ++
O=c1[nH]c(=O)c2[nH]cnc2[nH]1 [Cmpd 1020, xanthine] | ++
COc1cc(C(=O)NS(=O)(=O)c2ccccc2C)ccc1Cc1cn(C)c2ccc(NC(=O)OC3CCCC3)cc12 [Cmpd 1023, Zafirlukast] | +++++
Nc1ccn([C@H]2CC[C@@H](CO)O2)c(=O)n1 [Cmpd 1024, Zalcitabine] | ++++
O=C1Cc2cc(CCN3CCN(c4nsc5ccccc45)CC3)c(Cl)cc2N1 [Cmpd 1029, Ziprasidone HCl] | ++
Cilengitide [Cmpd 261] | ++++
Cyclo(RGDyK) [Cmpd 303] | ++
D-(−)-Isoascorbic Acid [Cmpd 306] | +
Fumalic acid [Cmpd 474] | ++
Icatibant Acetate [Cmpd 514] | ++
Lecithin, Soybean [Cmpd 577] | +
Teicoplanin [Cmpd 921] | +++
Zinc Pyrithione [Cmpd 1026] | +++++
beta-Alanine [Cmpd 174] | ++++
